In US20250099485A1, “COMPOSITIONS FOR PROMOTING HAIR GROWTH” (ESTETRA SRL, priority 2021, published 2025):

Key:
[1] = female, Lister Hooded, rat, in vivo, po, 15 mg/kg, 0.5 h
Method: Tissue distribution was determined in female rats (partially pigmented and non-pigmented) using [^14C]-estetrol.
A group of six female Lister Hooded rats each received a single oral dose of [^14C]-estetrol. At each selected time (see below) one animal was killed (by overdose of CO2) followed by immediate snap freezing in hexane/solid CO2. The carcasses were retained for examination of the tissue distribution of radioactivity using the technique of quantitative whole body autoradiography (QWBA).
Times for analysis were: (0.5, 8, and 24 hours, 7, 14 and 35 days).
Frozen carcasses were subjected to whole-body autoradiography.
Where concentrations are reported, radioactivity was assumed to be associated with [^14C]-estetrol or any metabolic products derived from [^14C]-estetrol. The specific activities of the dosed test compounds were used for the calculation of concentrations in all cases. Recoveries of radioactivity are reported as percentage of administered radioactivity (% dose). Radioactivity concentrations are also reported as μg equivalents/g.

[2] = system: human epidermal keratinocytes; test: Wound healing gene expression RT-qPCR array, keratinocytes; assay type: cell-based; details: 10^−7M, 15 h, relative to ethanol control
Description: The healing properties of E4 were investigated at the transcriptional level by studying gene expression changes by RT-qPCR. 84 genes qPCR arrays focusing on the wound healing process were used. These arrays contain genes important for the three phases of wound healing process, including extra-cellular matrix (ECM) remodeling factors, inflammatory cytokines and chemokines as well as growth factors and major signaling molecules. The changes in gene expression were interpreted in a dermo cosmetic context in order to highlight the potential benefits of the E4 towards wound healing.
After 24 h seeded on 25 cm^2 culture flasks (T25), cells were treated with E4 during 15 h. […]
The RNA concentration was determined by spectrophotometric measurement (QIAxpert, Qiagen) and the RNA quality was analyzed by capillarity electrophoresis (Agilent Bioanalyzer 2100—Agilent RNA 6000 Nano Kit). […]
The qPCR method was used to quantify the expression changes of specific markers in the cDNA populations. […]
The amplification of target genes was performed following the supplier's recommendations thanks to a “HotStart Taq DNA Polymerase” and to the use of SYBR Green as detection method. The SYBR Green is a marker emitting fluorescence once inserted between the paired bases of nucleic acids. The fluorescence intensity is thus directly proportional to the quantity of produced amplicons. […]

[3] = system: alkaline phosphatase in dermal papilla (DP); test: Hair follicle organ culture: alkaline phosphatase activity, DP inductivity; assay type: cell-based, human; details: all tested concentrations, vs vehicle
Method: (§1) 12-44 full-length frontotemporal hair follicles (HF) were obtained from four human female donors >50 years old. Donors were caucasian female subjects […], respectively (Donor 1: 12 temporal anagen HFs; Donor 2: 29; Donor 3: 44; Donor 4: 32). After microdissection from skin as described (Edelkamp et al., Methods Mol Biol, 2020, 2154:105-119; and Langan et al., Exp Dermatol, 2015, December; 24(12):903-1), HFs were placed in adequate culture medium and allowed a 24 h rest period to allow them to recover from the trauma of microdissection. Test substance (either vehicle (0.3% EtOH) or E4 at concentrations of 30 μM, 3 μM or 300 nM) was added to the medium at the end of the 24 h. Total culturing time was 5-7 days depending on the studied parameters and the experimental question. The experimental design for the hair follicle organ culture experiment is depicted in FIG. 12. Longer term culture experiments may be used to analyze the capacity to delay the onset of catagen.
Alkaline phosphatase is an indicator of DP inductivity (Yang, J Dermatol Sci, 2010, January; 57(1):2-11). Alkaline phosphatase in situ activity was measured in the DP.

[4] = system: CD34 positive cells in the suprabulbar ORS; test: Hair follicle organ culture: CD34 expression, stem cell progeny; assay type: cell-based, human; details: vs vehicle
Method: as §1
CD34 is a marker expressed by the progeny of HF bulge stem cells. It is expressed in the most external layer of the outer root sheet (ORS) below the isthmus (sub-bulge to suprabulbar regions) (Purba et al., BioEssays, 2014, May; 36(5):513-25). CD34 expression and percentage of CD34^+ cells were analyzed in the suprabulbar ORS.

K15 positive cells = test: Hair follicle organ culture: K15 expression, stem cells; assay type: cell-based, human; details: vs vehicle
Method: as §1
K15 is a type I cytokeratin expressed in HF bulge stem cells and their progeny (Purba et al., BioEssays, 2014). It is expressed in the bulge, infra-bulge and suprabulbar ORS. Bulge stem cells are identified using K15 expression, cellular morphology and anatomical localization (below the sebaceous glands, at the area where the arrector pili muscle attaches to the HF). K15 expression was analyzed in the bulge basal layer and in the suprabulbar ORS, and proliferation of K15 positive cells was evaluated in combination with Ki67 immunofluorescence staining.

[5] = system: versican in dermal papilla (DP); test: Hair follicle organ culture: versican expression, DP inductivity; assay type: cell-based, human; details: all tested concentrations, vs vehicle
Method: as §1
Versican, a large chondroitin sulfate proteoglycan molecule, is expressed in DP in anagen HFs and diminishes in catagen HFs and its expression correlates with hair inductive properties (Yang, J Dermatol Sci 2010). Versican intensity was analyzed in the DP.

[6] = system: human hair follicles (HF); test: Hair follicle organ culture: hair shaft elongation ex vivo; assay type: cell-based; details: 300 nM, 3 μM, 30 μM, n=4 female donors
Method: as §1, with “Longer term culture experiments may be used to analyze the capacity to delay the onset of catagen.” left out
To determine the HF length, each HF was measured from the end of the bulb connective tissue sheath to the end of the distal outer root sheath (ORS), using a digital light microscope at 50× magnification (VHX 900 Keyence Corporation, Osaka, Japan) and the affiliated software (Edelkamp et al., Methods Mol Biol, 2020, 2154:105-119; and Langan et al., Exp Dermatol, 2015, December; 24(12):903-1). […] Elongation is expressed as millimeters of growth and/or as percentage elongation from the baseline measurement.

Total amount of radioactivity in tissue, Skin (non-pigmented) [1]: 1.1 % dose administered/tissue | Total amount of radioactivity in tissue, Skin (pigmented) [1]: 1.7 % dose administered/tissue
SMILES: C[C@]12CC[C@@H]3c4ccc(O)cc4CC[C@H]3[C@@H]1[C@@H](O)[C@@H](O)[C@@H]2O [E4, 1,3,5 (10)-estratrien-3,15alpha,16alpha,17beta-tetrol]
MMP2 (Matrix metalloproteinase-2) expression, FC [2]: 1.1434 Fold Change (FC) | TIMP1 (Metalloproteinase inhibitor 1) expression, FC [2]: 0.8949 Fold Change (FC) | alkaline phosphatase activity in DP cells [3]: tendentially increased | increased percentage of CD34 positive cells in the suprabulbar ORS ([4]; 300 nM): tendentially | increased percentage of CD34 positive cells in the suprabulbar ORS ([4]; 3 μM): significantly | increased percentage of CD34 positive cells in the suprabulbar ORS ([4]; 30 μM): tendentially | percentage of K15 positive cells in the suprabulbar ORS (K15 positive cells; 300 nM, 3 μM, 30 μM): did not have any effect | decreased proliferation of K15 positive cells in the suprabulbar ORS (Ki-67) (K15 positive cells; 300 nM): significantly | increased proliferation of K15 positive cells in the bulge basal layer (Ki-67) (K15 positive cells; 300 nM): tendentially | decreased proliferation of K15 positive cells in the suprabulbar ORS (Ki-67) (K15 positive cells; 3 μM): tendentially | increased proliferation of K15 positive cells in the bulge basal layer (Ki-67) (K15 positive cells; 3 μM): tendentially | percentage of K15 positive cells in the bulge basal layer (K15 positive cells; 3 μM): significantly decreased | increased proliferation of K15 positive cells in the bulge basal layer (Ki-67) (K15 positive cells; 30 μM): significantly | versican expression in DP cells [5]: tendentially increased | hair shaft production [6]: did not modify
